One data set concerns MV4-11 cells. The data set can be described thus: MV4-11 Cell Cytotoxicity Assay (CellTiter-Blue, 72 h). Type of data set: cell-based, human. As to conditions: Homo sapiens, MV4-11; MV-4-11 cells. Summed up: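 Viability read-out: CellTiter-Blue, 1 h, fluorescence 560/590 nm. Preceded by 72 h exposure (37° C, 5% CO2) to twofold dilution series from 50 μM, triplicate, 0.5% DMSO vehicle, applied 24 h after plating.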

A further data set deals with glutathione (GSH). The data set can be described thus: Reactivity Profiling with Glutathione (GSH), half-life by HPLC. Conditions: 5 mM glutathione (GSH) in IMDM with 10% FBS.

SMILES strings stand for the structures. pIC50: −log10 of the molar value.

Eight compounds from patent publication US20230159445A1, “STAT INHIBITORY COMPOUNDS AND COMPOSITIONS” (JANPIX LIMITED, priority 2020, published 2023) can be followed below.

Procedure for glutathione (GSH): 3.5 μL of 5 mM stocking solution of the inhibitors in DMSO was added to 697.5 μL of Iscove's Modified Dulbecco's Medium (IMDM) supplemented with 10% FBS and antibiotic antimycotic solution, with 5 mM glutathione to afford a final concentration of 25 μM inhibitor with 0.5% DMSO. The solution was then immediately placed in the sample tray at 25° C. […] For each inhibitor, its peak is integrated at different time points and compared to the time zero injection in order to obtain a percentage remaining. Half-life is calculated according to a first order reaction kinetic taking into account those time points for which remaining percentage of inhibitor is above 40%, using the formula: t½=Ln(2)/k, where k is the slope of the linear plot of Ln[Inhibitor] vs time, according to the formula: Ln[A]=Ln[A]0−kt, where [A] is the value resulting from the integration at each time point, [A]0 the value at time zero, and t the time. For each inhibitor, both replicates are averaged and the resulting t½ reported.

With `CC(C)COc1cc(CN(C(=O)CN(Cc2ccc(Cl)cc2)S(=O)(=O)c2c(F)c(F)c(F)c(F)c2F)c2ccc(C(=O)O)c(O)c2)cc(OCC2CC2)c1` [Compound 1010, 4-(2-(N-(4-chlorobenzyl)-(2,3,4,5,6-pentafluorophenyl)sulfonamido)-N-(3-(cyclopropylmethoxy)-5-isobutoxybenzyl)acetamido)-2-hydroxybenzoic acid], the pIC50 in the data set on MV4-11 cells is 4.00 to 5.50. This compound also registered a half-life at 25 μM in the data set with glutathione (GSH) of 2.37 to 4.12 h.
`CC(C)(C)c1cc(CN(C(=O)CN(Cc2ccc(Cl)cc2)S(=O)(=O)c2c(F)c(F)c(F)c(F)c2F)c2ccc(C(=O)O)cc2O)cc(C2CC2)c1` [Compound 1015, 4-(N-(3-(tert-butyl)-5-cyclopropylbenzyl)-2-(N-(4-chlorobenzyl)-(2,3,4,5,6-pentafluorophenyl)sulfon-amido)acetamido)-3-hydroxybenzoic acid] showed a pIC50 with MV4-11 cells of 4.00 to 5.50. The compound further came in with a half-life at 25 μM in the data set on glutathione (GSH) of 4.12 to 9.23 h.
`COc1cc(N(Cc2cc(C3CC3)cc(C(C)(C)C)c2)C(=O)CN(Cc2ccc(Cl)cc2)S(=O)(=O)c2c(F)c(F)c(F)c(F)c2F)ccc1C(=O)O` [Compound 1017, 4-(N-(3-(tert-butyl)-5-cyclopropylbenzyl)-2-(N-(4-chlorobenzyl)-(2,3,4,5,6-pentafluorophenyl)sulfon-amido)acetamido)-2-methoxybenzoic acid] had a pIC50 in the data set on MV4-11 cells of 6.00 to 6.50. The half-life at 25 μM in the data set on glutathione (GSH) was in the range of 4.12 to 9.23 h.
As for `CC(C)c1cc(CN(C(=O)CN(Cc2ccc(Cl)cc2)S(=O)(=O)c2c(F)c(F)c(F)c(F)c2F)c2ccc(C(=O)O)c(O)c2)cc(C2CC2)c1` [Compound 1021, 4-(2-(N-(4-chlorobenzyl)-(2,3,4,5,6-pentafluorophenyl)sulfon-amido)-N-(3-cyclopropyl-5-isopropylbenzyl)acetamido)-2-hydroxybenzoic acid], the pIC50 in the data set with MV4-11 cells was 4.00 to 5.50. The same compound showed a half-life at 25 μM with glutathione (GSH) of 0.00167 to 2.37 h.
In the data set on MV4-11 cells, `CC(C)(C)c1cc(CN(C(=O)CN(Cc2ccc(Cl)cc2)S(=O)(=O)c2c(F)c(F)c(F)c(F)c2F)c2ccc(C(N)=O)cc2)cc(C2CC2)c1` [Compound 1031, 4-(N-(3-(tert-butyl)-5-cyclopropylbenzyl)-2-(N-(4-chlorobenzyl)-(2,3,4,5,6-pentafluorophenyl)sulfon-amido)acetamido) benzamide] had a pIC50 of 5.50 to 6.00. The half-life at 25 μM in the data set on glutathione (GSH) was in the range of 9.23 to 1670 h.
On the same counts, the results for `CC(C)(C)c1cc(CN(C(=O)CN(Cc2ccc(Cl)cc2)S(=O)(=O)c2c(F)c(F)c(F)c(F)c2F)c2ccc(C(=O)O)c(F)c2)cc(C2CC2)c1` [Compound 1033, 4-(N-(3-(tert-butyl)-5-cyclopropylbenzyl)-2-(N-(4-chlorobenzyl)-(2,3,4,5,6-pentafluorophenyl)sulfon-amido)acetamido)-2-fluorobenzoic acid] are 5.50 to 6.00 and 0.00167 to 2.37 h.
In turn, `COc1cc(C(=O)O)ccc1N(Cc1cc(C2CC2)cc(C(C)(C)C)c1)C(=O)CN(Cc1ncc(Cl)cc1F)S(=O)(=O)c1c(F)c(F)c(F)c(F)c1F` [Compound 1177, 4-(N-(3-(tert-butyl)-5-cyclopropylbenzyl)-2-(N-((5-chloro-3-fluoropyridin-2-yl)methyl)-(2,3,4,5,6-pentafluorophenyl)sulfon-amido)acetamido)-3-methoxybenzoic acid] came in with a half-life at 25 μM in the data set with glutathione (GSH) of 0.00167 to 2.37 h.
Regarding `COc1cc(O)ccc1N(Cc1cc(C2CC2)cc(C(C)(C)C)c1)C(=O)CN(Cc1cnccc1C(F)(F)F)S(=O)(=O)c1c(F)c(F)c(F)c(F)c1F` [Compound 1267, N-(3-(tert-butyl)-5-cyclopropylbenzyl)-N-(4-hydroxy-2-methoxyphenyl)-2-(N-((4-(trifluoromethyl)pyridin-3-yl)methyl)-(2,3,4,5,6-pentafluoro-phenyl)sulfonamido) acetamide], the half-life at 25 μM in the data set on glutathione (GSH) fell in the range of 9.23 to 1670 h.
